# Source: patent publication US20040101544A1, “Method for detoxifying a carbohydrate containing solution” (priority 2000, published 2004)
# pEC50: −log10 of the molar value.
# Key:
# [1] = test system: mouse fibroblasts cells L-929; experiment: In vitro assay for cytotoxicity: inhibition of cell growth (ICG); type: cell-based
# Protocol: Carbohydrate containing medical solutions used for peritoneal dialysis were mixed with 1 part of a cell growth medium and 10% (volume/volume) fetal calf serum was added (Wieslander et al., 1991, Kidney Int. 40:77-79). The basal cytotoxicity of the medical solution used for peritoneal dialysis was determined on mouse fibroblasts cells L-929 (CCL-1; ATTC, Rockville, Md., USA) as described earlier (Wieslander et al. 1993, Advances in Peritoneal Dialys, 9:31-35) and expressed as inhibition of cell growth (ICG).
# Mouse fibroblast cells (L-929) were grown and incubated according to Järkelid et al., 2000, ATLA 28, 415-425. Inhibition of cell growth was determined for a 4% PD fluid with the following composition
# Additionally dose response curves were made in MEM (Minimal Essential Medium).
# The results from incubation of L-929 cells with synthetic 3,4-dideoxy-glucosone-3-ene added in MEM are presented in table 1 below showing the values plotted in FIG. 5. The 4% PD solution was autoclaved while the PD fluid was sterile filtered. The PD solutions were tested twice (% ICG1 and % ICG2) and the mean ICG was calculated.
# [2] = Biological effects of 3,4-dideoxy-glucosone-3-ene (test not specified)
# [3] = test system: mouse fibroblasts cells L-929; details: alone or in mixtures at the concentrations found in PD fluids; cited from earlier work
molecule,measurement,setting,value
"3,4-dideoxy-glucosone-3-ene [3,4-DGE]",% ICG1,"[1]; 5 μM 3,4-DGE in MEM",24%
same,% ICG2,"[1]; 5 μM 3,4-DGE in MEM",12%
same,% ICG3,"[1]; 5 μM 3,4-DGE in MEM",31%
same,mean % ICG,"[1]; 5 μM 3,4-DGE in MEM","21,5%"
same,% ICG1,"[1]; 15 μM 3,4-DGE in MEM",47%
same,% ICG2,"[1]; 15 μM 3,4-DGE in MEM",49%
same,% ICG3,"[1]; 15 μM 3,4-DGE in MEM",44%
same,mean % ICG,"[1]; 15 μM 3,4-DGE in MEM","46,5%"
same,% ICG1,"[1]; 52 μM 3,4-DGE in MEM",92%
same,% ICG2,"[1]; 52 μM 3,4-DGE in MEM",80%
same,% ICG3,"[1]; 52 μM 3,4-DGE in MEM",88%
same,mean % ICG,"[1]; 52 μM 3,4-DGE in MEM",84%
same,% ICG2,"[1]; 2,5 μM 3,4-DGE in MEM",5%
same,% ICG3,"[1]; 2,5 μM 3,4-DGE in MEM",20%
same,mean % ICG,"[1]; 2,5 μM 3,4-DGE in MEM","12,5%"
same,% ICG1,"[1]; 10,4 μM 3,4-DGE in MEM",36%
same,% ICG2,"[1]; 10,4 μM 3,4-DGE in MEM",51%
same,% ICG3,"[1]; 10,4 μM 3,4-DGE in MEM",42%
same,mean % ICG,"[1]; 10,4 μM 3,4-DGE in MEM","46,5%"
same,% ICG1,"[1]; 24,3 μM 3,4-DGE in MEM",63%
same,% ICG2,"[1]; 24,3 μM 3,4-DGE in MEM",65%
same,% ICG3,"[1]; 24,3 μM 3,4-DGE in MEM",58%
same,mean % ICG,"[1]; 24,3 μM 3,4-DGE in MEM","61,5%"
same,pEC50,"[1]; dose response curves in MEM, L-929 cells",4.80
same,toxicity in cytotoxicity test,[1]; fibroblast cells,toxic to fibroblast cells
same,concentration below which no biological effects seem to be present,[2],< 2 μM
O=CC(=O)C[C@H](O)[C@H](O)CO [3-deoxyglucosone],toxicity in the L-929 system,[3],None of these five listed compounds show toxicity
CC=O [acetaldehyde],toxicity in the L-929 system,[3],None of these five listed compounds show toxicity
C=O [formaldehyde],toxicity in the L-929 system,[3],None of these five listed compounds show toxicity
O=CC=O [glyoxal],toxicity in the L-929 system,[3],None of these five listed compounds show toxicity
